Results: PubChem BioAssay AID1963838 (Molecular Pharmacology Branch, DTP, NCI, 2024)
“And” between values parts separate entries of the source, which are not always exact repeats. Identical values can stand only once.

System: 855422-203-R-J1-PDC complex spheroid viability
Assay: Anticancer human tumor 855422-203-R-J1-PDC patient-derived bladder carcinoma cell line growth inhibition [POLQ]
Conditions: for viability, T/C: stronger effect = lower value
Procedure: Multicellular complex tumor spheroid response to Polymerase (POL) inhibitors (novobiocin, ART-558, RP6685) in combination with a variety of drugs and investigational agents in selected tumor cell lines
The POL inhibitors (novobiocin, ART-558, and RP6685) were evaluated both individually and in combination with standard of care and investigational anticancer small molecules within a complex spheroid model of solid tumors. . Complex spheroids include a stromal component modeled by human endothelial cells (HUVEC) and fibroblasts modeled by human mesenchymal stem cells (MSCs). The concentration ranges selected for each drug and investigational agent were based upon clinically achievable concentrations if the clinical Cmax of the agent was known.
Compounds. The drugs and investigational agents: novobiocin (NSC847541), ART-558 (NSC835418), RP-6685 (NSC848927), peposertib (NSC802822), ceralasertib (NSC780249), elimusertib (NSC800525), camonsertib (NSC841442), AZD-1390 (NSC803789), olaparib (NSC753686), talazoparib (NSC767125), rucaparib (NSC756644), sotorasib (NSC818433), MRTX-1133 (NSC836407), SN-38 (NSC673596), topotecan (NSC609699), epotoside (NSC141540), doxorubicin (NSC123127), gemcitabine (NSC613327), 5-fluorouracil (NSC19893), paclitaxel (NSC125973), vemurafenib (NSC761431), MSA-2 (NSC828583), SN-011 (NSC837082), adavosertib (NSC754352), prexasertib (NSC758257), carboplatin (NSC241240) and oxaliplatin (NSC266046), were obtained from the National Cancer Institute (NCI) Developmental Therapeutics Program Chemical Repository (21). The FDA-approved anticancer drug set is available from the Developmental Therapeutics Program at https://dtp.cancer.gov/organization/dscb/obtaining/. […] The stock solutions were prepared in dimethyl sulfoxide (DMSO, Sigma-Aldrich, St. Louis, MO, cat. D2650), except for the platinum compounds which were prepared in saline (Quality Biological, Gaithersburg, MD, cat. 114-055-101), at 800-fold the tested concentration and stored at -70 degrees C prior to their use. All drugs and investigational agents were tested over a range starting from a high concentration at or near the clinical Cmax and decreasing in half-log increments. If the clinical Cmax for an agent had not been determined, the highest concentration tested was 10 microM, except for SN-38, which was tested at a high concentration of 1 microM.
Cell Culture. All cells were maintained in an incubator at 37 degrees C and 5% CO2 with 95% humidity. The PDC lines were cultured according to standard operating procedures established by the NCI PDMR (https://pdmr.cancer.gov). Table 3 of the manuscript, lists the cell lines along with the number of the three cell types plated to form the mct-spheroids and media for tumor cell growth. After thawing, all PDC lines, except 997537-175-T-J1-PDC and 415267-285-R-J2-PDC, were cultured in Matrigel-coated flasks prepared with a working solution of 1X Ham's F-12 nutrient mix, without supplementation (Thermo Fisher Scientific, cat. 11765054), 100 U/mL penicillin-streptomycin (Thermo Fisher Scientific, cat. 15140122), and 2.5% Matrigel (Corning Inc., Corning, NY, cat. 354248) for the first three passages. The two PDC lines 997537-175-T-J1-PDC and 415267-285-R-J2-PDC were cultured on uncoated flasks. The 857933-349-R-J2-PDC line was cultured in 6C/Colon 1B media containing advanced DMEM/F-12 (Thermo Fisher Scientific, cat. 12634028), 10 mM HEPES (Thermo Fisher Scientific, cat. 15630080), 1X GlutaMAX supplement (Thermo Fisher Scientific, cat. 35050061), 0.1 mg/mL primocin (InvivoGen, San Diego, CA, cat. ant-pm-2), 10% defined fetal bovine serum, heat inactivated (HyClone Laboratories Inc., Logan, UT, cat. SH30070.03HI), 50% L-WRN conditioned media (ATCC, cat. CRL-3276), 1.25 mM N-Acetyl-L-cysteine (Sigma-Aldrich, cat. A9165), 10 mM nicotinamide (Sigma-Aldrich, cat. N0636), 1X B-27 supplement (Thermo Fisher Scientific, cat. 17504044), 1X N-2 supplement (Thermo Fisher Scientific, cat. […]
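Also: spheroids exposed to compounds for seven days before readout.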

COc1cc2cc(C(=O)CCC(=O)O)sc2cc1OC
viability, T/C (compound 0.0316 µM): 93.5% and 102% and 106%
viability, T/C (compound 0.1 µM): 128% and 88.2% and 104%
viability, T/C (compound 0.316 µM): 98.3% and 108% and 107%
viability, T/C (compound 1 µM): 97.8% and 87.2% and 98.9%
viability, T/C (compound 3.16 µM): 111% (2×) and 106%
viability, T/C (compound 10 µM): 112% and 119% and 102%
IC50 (curve of compound): > 10000 nM

CCc1c2c(nc3ccc(O)cc13)-c1cc3c(c(=O)n1C2)COC(=O)[C@]3(O)CC + Cc1cccc(N(C)C(=O)C2C(O)CCN2c2nc(C)cc(C(F)(F)F)c2C#N)c1
IC50 (curve of first compound, second compound 0.0316 µM): 3.34 nM
IC50 (curve of first compound, second compound 0.1 µM): 3.49 nM
IC50 (curve of first compound, second compound 0.316 µM): < 3.16 nM
IC50 (curve of first compound, second compound 1 µM): < 3.16 nM
IC50 (curve of first compound, second compound 3.16 µM): < 3.16 nM
IC50 (curve of first compound, second compound 10 µM): < 3.16 nM
viability, T/C (second compound 0.0316 µM, first compound 0.00316 µM): 52.3%
viability, T/C (second compound 0.0316 µM, first compound 0.01 µM): 9.87%
viability, T/C (second compound 0.0316 µM, first compound 0.0316 µM): 7.42%
viability, T/C (second compound 0.0316 µM, first compound 0.1 µM): 5.03%
viability, T/C (second compound 0.0316 µM, first compound 0.316 µM): 3.07%
viability, T/C (second compound 0.0316 µM, first compound 1 µM): 1.53%
viability, T/C (second compound 0.1 µM, first compound 0.00316 µM): 53.6%
viability, T/C (second compound 0.1 µM, first compound 0.01 µM): 14.6%
viability, T/C (second compound 0.1 µM, first compound 0.0316 µM): 7.37%
viability, T/C (second compound 0.1 µM, first compound 0.1 µM): 4.23%
viability, T/C (second compound 0.1 µM, first compound 0.316 µM): 3.04%
viability, T/C (second compound 0.1 µM, first compound 1 µM): 1.53%
viability, T/C (second compound 0.316 µM, first compound 0.00316 µM): 46.3%
viability, T/C (second compound 0.316 µM, first compound 0.01 µM): 13.7%
viability, T/C (second compound 0.316 µM, first compound 0.0316 µM): 6.83%
viability, T/C (second compound 0.316 µM, first compound 0.1 µM): 5.76%
viability, T/C (second compound 0.316 µM, first compound 0.316 µM): 2.86%
viability, T/C (second compound 0.316 µM, first compound 1 µM): 1.53%
viability, T/C (second compound 1 µM, first compound 0.00316 µM): 44.8%
viability, T/C (second compound 1 µM, first compound 0.01 µM): 15.2%
viability, T/C (second compound 1 µM, first compound 0.0316 µM): 8.04%
viability, T/C (second compound 1 µM, first compound 0.1 µM): 5.03%
viability, T/C (second compound 1 µM, first compound 0.316 µM): 2.97%
viability, T/C (second compound 1 µM, first compound 1 µM): 1.31%
viability, T/C (second compound 3.16 µM, first compound 0.00316 µM): 40%
viability, T/C (second compound 3.16 µM, first compound 0.01 µM): 12.1%
viability, T/C (second compound 3.16 µM, first compound 0.0316 µM): 6.92%
viability, T/C (second compound 3.16 µM, first compound 0.1 µM): 5.22%
viability, T/C (second compound 3.16 µM, first compound 0.316 µM): 2.69%
viability, T/C (second compound 3.16 µM, first compound 1 µM): 1.55%
viability, T/C (second compound 10 µM, first compound 0.00316 µM): 28.5%
viability, T/C (second compound 10 µM, first compound 0.01 µM): 11.5%
viability, T/C (second compound 10 µM, first compound 0.0316 µM): 7.06%
viability, T/C (second compound 10 µM, first compound 0.1 µM): 3.56%
viability, T/C (second compound 10 µM, first compound 0.316 µM): 2.83%
viability, T/C (second compound 10 µM, first compound 1 µM): 2.09%
